The structures appear in SMILES notation.

System in one data set: not given
Assay: not given
Settings: not given
As usually defined, the melting point is the temperature, or range, at which the solid turns liquid. Compound `CCOC(=O)c1cc(S(=O)(=O)Nc2ccc(Cl)cc2Cl)ccc1Oc1cncc(Cl)c1` [Example 40, ethyl 2-(3-chloro-5-pyridyloxy)-5-(2,4-dichlorophenylaminosulfonyl)benzoic acid] gave a melting point of 153 to 155 °C.

In turn, `O=S(=O)(Nc1cc(C(F)(F)F)ccc1Oc1cncc(Cl)c1)c1ccc(Cl)cc1Cl` [Example 43, 4-(3-chloro-5-pyridyloxy)-3-(2,4-dichlorobenzenesulfonamido)benzotrifluoride] came in with a melting point of 150 to 151.5 °C.

`CCOC(=O)c1cc(NS(=O)(=O)c2ccc(C(F)(F)F)cn2)ccc1Oc1cncc(Cl)c1` [Example 21, ethyl 5-(5-trifluoromethyl-2-pyridinesulfonamido)-2-(3-chloro-5-pyridyloxy)benzoate]: the melting point is 133 to 135 °C.

On to `CCOC(=O)c1cc(NS(=O)(=O)c2cccnc2)ccc1Oc1cncc(Cl)c1` [Example 25, ethyl 5-(3-pyridinesulfonamido)-2-(3-chloro-5-pyridyloxy)benzoate], for which the melting point is 120 to 122 °C.

Take `CCOC(=O)c1cc(NS(=O)(=O)c2ccc(Cl)nc2)ccc1Oc1cncc(Cl)c1` [Example 24, ethyl 5-(6-chloro-3-pyridinesulfonamido)-2-(3-chloro-5-pyridyloxy)benzoate]: the melting point is 166 to 168 °C.

`O=S(=O)(Nc1ccccc1Oc1cncc(Cl)c1)c1ccc(Cl)cc1Cl` [Example 32, 1-(3-chloro-5-pyridyloxy)-2-(2,4-dichlorobenzenesulfonamido)benzene] had a melting point of 168 to 170 °C.

Regarding `CCOC(=O)c1cc(NC(=O)c2ccc(Cl)cc2Cl)ccc1Oc1cncc(Cl)c1` [Example 41, ethyl 5-(2,4-dichlorobenzamido)-2-(3-chloro-5-pyridyloxy)benzoate], the melting point is 125 to 127 °C.

The next data set has as its target T1, PPARγ (Homo sapiens, UniProt P37231).
T1 construct: made in house
T1 sequence (P37231 1-505): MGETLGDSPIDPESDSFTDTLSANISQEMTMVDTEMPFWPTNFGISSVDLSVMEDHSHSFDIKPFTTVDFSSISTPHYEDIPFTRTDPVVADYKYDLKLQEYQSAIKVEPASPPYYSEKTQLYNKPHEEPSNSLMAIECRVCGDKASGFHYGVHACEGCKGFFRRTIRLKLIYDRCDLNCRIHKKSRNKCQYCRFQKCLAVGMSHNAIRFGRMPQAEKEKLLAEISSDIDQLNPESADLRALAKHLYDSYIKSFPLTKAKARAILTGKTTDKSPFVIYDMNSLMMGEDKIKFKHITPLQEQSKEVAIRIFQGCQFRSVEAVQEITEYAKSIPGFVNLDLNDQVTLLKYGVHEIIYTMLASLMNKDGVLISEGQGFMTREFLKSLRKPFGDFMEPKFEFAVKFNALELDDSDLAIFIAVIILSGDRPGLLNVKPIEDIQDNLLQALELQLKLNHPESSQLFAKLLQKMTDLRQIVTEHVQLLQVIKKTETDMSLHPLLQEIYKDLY
The experiment in a line: PPARγ ligand binding assay utilizing [3H]-BRL 49653 as the radioligand. The settings on record: concentration of test compound required to reduce by 50% the specific binding of [3H]-BRL 49653; methods similar to Lehmann et al. The source says: The compounds of the present invention can be evaluated for modulation of the PPARγ receptor using assays such as those described in Jiang, et al., Nature 391:82-86 (1998), Ricote, et al., Nature 391:79-82 (1998) and Lehmann, et al., J. Biol. Chem. 270(12): 12953-12956 (1995). Alternatively, the compounds can be evaluated for their ability to displace radiolabeled BRL 49653 from a PPARγ-GST fusion protein as follows:
PPARγ-GST fusion protein (prepared according to standard procedures), [^3H]—BRL 49653 having 50 Ci/mmol specific activity, Polyfiltronics Unifilter 350 filtration plate and glutathione-Sepharose® beads (from Pharmacia: washed twice with 10×binding buffer in which BSA and DTT can be left out).
Binding buffer (10 mM Tris-HCl, pH 8.0, 50 mM KCl, 10 mM DTT, 0.02% BSA and 0.01% NP-40) is added in 80 microliter amounts to the wells of the filtration plate. The test compound is then added in 10 microliters of DMSO. The PPARγ-GST fusion protein and radiolabeled BRL compound are premixed in binding buffer containing 10 mM DTT and added in 10 microliter amounts to the wells of the plate to provide final concentrations of 1 μg/well of PPARγ-GST fusion protein and 10 nM [^3H]—BRL 49653 compound. The plate is incubated for 15 minutes. Glutathione-agarose bead is added in 50 μL of binding buffer, and the plate is vigorously shaken for one hour. The plate is washed four times with 200 μL/well of binding buffer (without BSA and DTT). The bottom of the plate is sealed and 200 μL/well of scintillation cocktail is added. The top of the plate is then sealed and the radioactivity is determined.
IC50 values are defined as the concentration of test compounds required to reduce by 50% the specific binding of [^3H]-BRL 49653.
For orientation: IC50 means the concentration that inhibits the measured activity by half. Take `CCOC(=O)c1cc(NS(=O)(=O)c2cc([N+](=O)[O-])ccc2C)ccc1Oc1cncc(Cl)c1` [Example 5, ethyl 5-(2-methyl-5-nitrobenzenesulfonamido)-2-(3-chloro-5-pyridyloxy)benzoate]: the IC50 came out at 800 nM. That is a sub-micromolar value.

Turning to `CCOC(=O)c1cc(NS(=O)(=O)c2cc(Br)ccc2OC)ccc1Oc1cncc(Cl)c1` [Example 3, ethyl 5-(2-methoxy-5-bromobenzenesulfonamido)-2-(3-chloro-5-pyridyloxy)benzoate], the IC50 was found to be 150 nM. This IC50 lies about 5.3-fold lower than the previous one.

`CCOC(=O)c1cc(NS(=O)(=O)c2ccc(OC)c(OC)c2)ccc1Oc1cncc(Cl)c1` [Example 4, ethyl 5-(3,4-dimethoxy-benzenesulfonamido)-2-(3-chloro-5-pyridyloxy)benzoate] returned a half-maximal inhibitory concentration (IC50) of 300 nM.

`CCOC(=O)c1cc(NS(=O)(=O)c2c(Cl)cccc2Cl)ccc1Oc1cncc(Cl)c1` [Example 6, ethyl 5-(2,6-dichlorobenzenesulfonamido)-2-(3-chloro-5-pyridyloxy)benzoate]: the IC50 is 6000 nM.

As to `CCOC(=O)c1cc(NS(=O)(=O)c2c(C)cc(Cl)cc2Cl)ccc1Oc1cncc(Cl)c1` [Example 7, ethyl 5-(2,4-dichloro6-methylbenzenesulfonamido)-2-(3-chloro5-pyridyloxy)benzoate], the IC50 was found to be 800 nM. This IC50 is about 7.5-fold lower than that of the compound before.

(Values after US7439242B2, “PPARγ modulators” (Amgen Inc., priority 1998, dated 2008).)
